# According to patent US20250250298A1, “ONCOLYTIC PEPTIDE AND USE THEREOF” (Rise Biopharmaceuticals Inc., priority 2022, published 2025):
# Where a SMILES comes first, the peptide text is derived from it.
# Experiments:
# E0771 breast cancer = assay type: in vivo; details: E0771 tumor-bearing C57BL/6 mice
# Procedure: FIGS. 7A-7B are schematic diagrams of E0771 breast cancer experiments. FIG. 7A: The right flank of the mouse was administrated with SEQ ID NO:9. […] (2×10^5E0771 cells per mouse/50 μl RPMI-1640). Palpable tumors (75 mm^3) were injected (IT.) with single doses of SEQ ID NO:9 dissolved in PBS (1.0 mg peptide/50 μl PBS) once a day for 5 consecutive days, and the vehicle control was saline only (0.9% NaCl).
# Female C57BL/6 mice (4- to 6-week old) as allogeneic model animals were purchased from BioLASCO Taiwan Co., Ltd. and maintained in a specific pathogen-free and controlled environment. During the experiments, female mice, weighing 18.0-24.0 g each, were kept in groups of 4 to 6 animals per cage under climate-controlled conditions, with 12 h light/dark cycles and an ambient temperature. The mice were housed in an enriched individually ventilated cage (IVC) system with free access to standard rodent chow and water ad libitum. The animals were anesthetized during the experimental procedures with 2.5% isoflurane gas. The animals were monitored daily. […]
# Tumor size was measured 3 times a week using a caliper, and the volume of tumors was calculated using the following formula: Tumor size (mm^3)=0.5×(width^2×length). […] The survival rates of tumor-bearing mice were observed and recorded continuously until all animals died. […]
# [1] = test system: SAS (Human tongue carcinoma); assay: MTT cytotoxicity, SAS; assay type: cell-based; details: 24 hours incubation
# Text: (§1) The MTT assay is a colorimetric method for measuring the activity of enzymes in living cells that reduces Thiazolyl blue tetrazolium bromide (MTT) to formazan dyes showing a purple color. In this embodiment, a colorimetric 3-(4.5-dimethylthiazol-2-yl)-2.5-diphenyltetrazodium bromide (MTT) viability assay was used to assess the in vitro cytotoxicity of oncolytic peptides.
# (§2) The half inhibition concentration (IC50) is the concentration required by the oncolytic peptides to reach fifty percent inhibition. In one embodiment, the oncolytic peptides were used for IC50 test via MTT colorimetric assay.
# (§3) All cancer cell lines were seeded in a 96-well plate with a concentration of 5000-8000 cells/100 μl/well and incubated for 24 hrs. After medium was removed, 100 μl fresh medium containing peptide (ranging from 50 μM to 0.8 μM) was added to the wells. Following 24 hours incubation, fresh medium with MTT (0.5 mg/ml) was replaced and incubated for 3 hours. After medium/MTT was removed, DMSO was added at 100 μl for dissolving the formazan crystal. Cell survival rate was calculated by measuring the absorbance at 540 nm using a Multi-labeled Microplate Reader (Sunrise™, TECAN).
# Panc02 = assay: MTT cytotoxicity, Panc02; assay type: cell-based, murine; details: Panc02, 24 hours incubation
# Text: as §1, §2
# (§4) Human lung cancer lines PC9 and A549 and murine pancreatic cancer cell line Panc02 were cultured in RPMI medium supplemented with 10% fetal bovine serum and antibiotic in this embodiment. Additionally, murine hepatoma cell line Hepa 1-6, murine melanoma cell line B16-F10, murine fibrosarcoma cell line MN-11, murine mammary cancer cell line E0771 and human diploid fibroblast (HFW) were cultured in DMEM medium supplemented with 10% fetal bovine serum and antibiotic. Cells were cultured in a humidified incubator containing 5% CO2 at 37° C.
# as §3
# [2] = test system: A549 (Human non-small cell lung cancer cell); assay: MTT cytotoxicity, A549; assay type: cell-based; details: A549, 24 hours incubation
# Text: as §1, §2, §4, §3
# [3] = Peptide stability in serum; assay type: in vitro ADME; details: 25% (vol/vol) bovine calf serum
# Procedure: Since this kind of peptide is highly toxic, the hope is that the peptide can be decomposed after inducing cancer cells to release danger-associated molecular patterns (DAMPs), and will not stay in the body for too long. After exposure to 25% (vol/vol) bovine calf serum, the residues of peptides were analyzed by liquid chromatography, and the stability at different time points was calculated.
# [4] = test system: EO771 (Murine mammary adenocarcinoma); assay: MTT cytotoxicity, EO771; assay type: cell-based; details: EO771, 24 hours incubation
# Text: as §1, §2, §4, §3
# [5] = test system: C9 (Human oral cancer cell); assay: MTT cytotoxicity, C9; assay type: cell-based; details: C9, 24 hours incubation
# Text: as §1, §2, §3
# [6] = test system: NCI-N87 (Human gastric carcinoma); assay: MTT cytotoxicity, NCI-N87; assay type: cell-based; details: NCI-N87, 24 hours incubation
# Text: as §1, §2, §3
# [7] = test system: B16-F10 (Murine skin malignant melanoma); assay: MTT cytotoxicity, B16-F10; assay type: cell-based; details: B16-F10, 24 hours incubation
# Text: as §1, §2, §4, §3
# [8] = test system: HCT-15 (Human colorectal cancer); assay: MTT cytotoxicity, HCT-15; assay type: cell-based; details: HCT-15, 24 hours incubation
# Text: as §1, §2, §3
# [9] = test system: OECM-1 (Human oral cancer cell); assay: MTT cytotoxicity, OECM-1; assay type: cell-based; details: OECM-1, 24 hours incubation
# Text: as §1, §2, §3
smiles,measurement,setting,value
"CC(C)C[C@H](NC(=O)[C@H](Cc1ccc2ccccc2c1)NC(=O)[C@H](CCCCN)NC(=O)[C@H](CC(C)C)NC(=O)[C@H](Cc1c[nH]c2ccccc12)NC(=O)[C@H](CCCCN)NC(=O)[C@H](CCCNC(=N)N)NC(=O)[C@H](Cc1c[nH]c2ccccc12)NC(=O)[C@H](CCCNC(=N)N)NC(=O)[C@H](CCCNC(=N)N)NC(=O)[C@H](CCCCN)NC(=O)[C@H](CCCCN)NC(=O)[C@H](CCCCN)NC(=O)[C@@H](N)CCCCN)C(=O)N[C@@H](C)C(=O)N[C@@H](CCCCN)C(N)=O [SEQ ID NO: 9, KKKK-RR-WRK-WLK-Nal-LA-K-NH2] (HELM PEPTIDE1{K.K.K.K.R.R.W.R.K.W.L.K.[O=C([C@H](Cc1ccc2ccccc2c1)N[*:1])[*:2]].L.A.K.[am]}$$$$V2.0; N-terminus assumed)",Survival (lifespan),"E0771 breast cancer; IT. 1.0 mg once a day for 5 days, vs untreated controls",extended the lifespan
same,"Tumor growth, treated tumor (right flank)","E0771 breast cancer; IT. 1.0 mg peptide/50 μl PBS once a day for 5 consecutive days, vs saline control",significantly inhibited tumor growth
same,IC50,[1],6030 nM
same,IC50,Panc02,2660 nM
same,IC50,[2],2790 nM
same,Serum stability (residual peptide),[3]; 0 hr,100.00%
same,remaining at 0.5 h,"[3]; 0.5 hr, read-out: Serum stability (residual peptide)",90.7%
same,remaining at 1 h,"[3]; 1 hr, read-out: Serum stability (residual peptide)",76.2%
same,remaining at 2 h,"[3]; 2 hr, read-out: Serum stability (residual peptide)",77.9%
same,remaining at 4 h,"[3]; 4 hr, read-out: Serum stability (residual peptide)",70.9%
same,remaining at 6 h,"[3]; 6 hr, read-out: Serum stability (residual peptide)",74.2%
same,remaining at 8 h,"[3]; 8 hr, read-out: Serum stability (residual peptide)",55.8%
same,IC50,[4],2010 nM
same,IC50,[5],6430 nM
same,IC50,[6],2350 nM
same,IC50,[7],7160 nM
same,IC50,[8],2420 nM
same,IC50,[9],6360 nM
